Common to all, as to type: cell-based, human
One assay has as its system SMN2 mRNA. As to the kind of experiment: Splicing RT-qPCR panel, SMN2 canonical junction (CJ) mRNA. The note with it: Homo sapiens, read-out: SMN2 CJ (decrease in CJ mRNA levels, IC50). The gist of the method:
(§1)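 A673 cells (DMEM, 10% FBS) or K562 cells (IMDM, 10% FBS) treated 24 h at 37 °C with an 11-point 3-fold dilution, top 10 uM, DMSO ≤0.25%. Canonical-junction mRNA quantified in lysates by RT-qPCR, normalised to GAPDH, GUSB or PPIA and to DMSO (2^−ΔΔCt), then converted to % response.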

Another assay deals with HTT mRNA. As to the kind of experiment: Splicing RT-qPCR assay, HTT canonical (CJ) and alternative (AJ) junction mRNA. The following applies: Homo sapiens; for IC50: canonical junction mRNA; for AC50: alternative junction mRNA, read-out: HTT AJ (AC50, increase in AJ mRNA). In outline:
(§2)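 Read-out: one-step RT-qPCR on crude lysates measuring exon-exon junction isoforms, CJ for the canonical transcript and AJ for compound-induced exon inclusion. Normalization used PPIA for adherent A673 and GAPDH or GUSB for K562. Cells received 11 doses, 3-fold apart, top 10 uM, for 24 h.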

The subject of a further assay is MYB mRNA. As to the kind of experiment: Splicing RT-qPCR assay, MYB canonical (CJ) and alternative (AJ) junction mRNA. The following applies: Homo sapiens; for IC50: canonical junction mRNA; for AC50: alternative junction mRNA, read-out: MYB AJ (AC50, increase in AJ mRNA). In outline:
as §2

For the next assay, the system named is Target C mRNA. As to the kind of experiment: Splicing RT-qPCR panel, Target C canonical junction (CJ) mRNA. The note with it: Homo sapiens, read-out: Target C CJ (decrease in CJ mRNA levels, IC50). In outline: as §1
The mark [1] stands for this setting: 24 h, RT-qPCR, A673 or K562 cells, 24 hours treatment, read-out: HTT CJ (IC50, decrease in CJ mRNA).
[2] abbreviates: qPCR panel, read-out: HTT CJ (decrease in CJ mRNA levels, IC50).
The mark [3] stands for this setting: RT-qPCR, A673 or K562 cells, 24 hours treatment.
Setting [4] is: qPCR panel, read-out: MYB CJ (decrease in CJ mRNA levels, IC50).
Setting [5] is: RT-qPCR, A673 or K562 cells, 24 hours treatment, read-out: MYB CJ (IC50, decrease in CJ mRNA).

Structures are written as SMILES. Read-outs that look alike come from different tables or passages of the source.

Turning to `Cn1cc2cc(-c3ccc4cc(N5CC[C@H](NC(C)(C)C)C5)cnc4n3)c(O)cc2n1` (single isomer, unassigned) [Compound 200], the IC50 with SMN2 mRNA is less than 100 nM; in the assay on HTT mRNA (setting [1]), 1000 to 10000 nM; with HTT mRNA (setting [2]), 1000 to 10000 nM; in the assay on MYB mRNA (setting [4]), 100 to 1000 nM; in the assay with MYB mRNA (setting [5]), 100 to 1000 nM; in the assay on Target C mRNA, 1000 to 10000 nM. Further, the figures for the concentration at half-maximal activity (AC50) in the assay on HTT mRNA (setting [3]) and in the assay with MYB mRNA (setting [3]) were 1000 to 10000 nM and 100 to 1000 nM, respectively.
Regarding `CNC1CCN(c2cnc3nc(-c4cc(F)c5nc(C)cn5c4)ccc3c2)C1` (stereo not shown) [Compound 100, 1-(7-{8-fluoro-2-methylimidazo[1,2-a]pyridin-6-yl}-1,8-naphthyridin-3-yl)-N-methylpyrrolidin-3-amine], the IC50 in the assay with SMN2 mRNA is less than 100 nM; in the assay on HTT mRNA (setting [1]), 100 to 1000 nM; with HTT mRNA (setting [2]), 100 to 1000 nM; in the assay with MYB mRNA (setting [4]), less than 100 nM; in the assay with MYB mRNA (setting [5]), less than 100 nM; in the assay with Target C mRNA, 100 to 1000 nM. Also, the AC50 was 100 to 1000 nM with HTT mRNA (setting [3]) and less than 100 nM in the assay with MYB mRNA (setting [3]).
For the molecule `Cn1cc2cc(-c3cnc4nc(N5CCNCC5)cc(Cl)c4c3)cc(F)c2n1` [Compound 101, 4-chloro-6-(7-fluoro-2-methyl-2H-indazol-5-yl)-2-(piperazin-1-yl)-1,8-naphthyridine], the IC50 in the assay with SMN2 mRNA was less than 100 nM; in the assay with HTT mRNA (setting [1]), 1000 to 10000 nM; with HTT mRNA (setting [2]), 1000 to 10000 nM; in the assay with MYB mRNA (setting [4]), 100 to 1000 nM; in the assay with MYB mRNA (setting [5]) it was 100 to 1000 nM; in the assay with Target C mRNA, greater than 10000 nM. Also, the half-maximal activity concentration (AC50) is 1000 to 10000 nM with HTT mRNA (setting [3]) and less than 100 nM in the assay with MYB mRNA (setting [3]).
`Cn1cc2cc(-c3cc(Cl)c4cc(N5CCNCC5)cnc4n3)c(O)cc2n1` [Compound 102, 5-[4-chloro-6-(piperazin-1-yl)-1,8-naphthyridin-2-yl]-2-methylindazol-6-ol]: the IC50 with SMN2 mRNA is less than 100 nM; in the assay on HTT mRNA (setting [1]), 100 to 1000 nM; in the assay with HTT mRNA (setting [2]), 100 to 1000 nM; in the assay on MYB mRNA (setting [4]), less than 100 nM; in the assay with MYB mRNA (setting [5]), less than 100 nM; with Target C mRNA, 1000 to 10000 nM. In addition, the AC50 in the assay on HTT mRNA (setting [3]) is 100 to 1000 nM; in the assay with MYB mRNA (setting [3]), less than 100 nM.
Regarding `Cn1cc2cc(-c3cc(Cl)c4cc(N5CCNCC5)cnc4n3)cc(F)c2n1` [Compound 103], the concentration for half-maximal inhibition (IC50) with SMN2 mRNA was less than 100 nM; with HTT mRNA (setting [1]), 100 to 1000 nM; in the assay with HTT mRNA (setting [2]), 100 to 1000 nM; in the assay with MYB mRNA (setting [4]), less than 100 nM; in the assay on MYB mRNA (setting [5]), less than 100 nM; in the assay with Target C mRNA, 1000 to 10000 nM. For the same molecule, the AC50 in the assay on HTT mRNA (setting [3]) is 1000 to 10000 nM; with MYB mRNA (setting [3]), less than 100 nM.
`Cc1c(O)c(-c2cc(Cl)c3cc(N4CCNCC4)cnc3n2)cc2cn(C)nc12` [Compound 154, 5-[4-chloro-6-(piperazin-1-yl)-1,8-naphthyridin-2-yl]-2,7-dimethylindazol-6-ol]: the 50% inhibitory concentration (IC50) in the assay on SMN2 mRNA was less than 100 nM; with HTT mRNA (setting [1]), 100 to 1000 nM; in the assay on HTT mRNA (setting [2]), 100 to 1000 nM; in the assay on MYB mRNA (setting [4]) it was less than 100 nM; with MYB mRNA (setting [5]), less than 100 nM; in the assay with Target C mRNA, 1000 to 10000 nM. For the same molecule, the AC50 in the assay with HTT mRNA (setting [3]) is 100 to 1000 nM; in the assay with MYB mRNA (setting [3]), less than 100 nM.
With `Cn1cc2cc(-c3cc(Cl)c4cc(N5CCNCC5)cnc4n3)c(O)c(F)c2n1` [Compound 155, 5-[4-chloro-6-(piperazin-1-yl)-1,8-naphthyridin-2-yl]-7-fluoro-2-methylindazol-6-ol], the IC50 with SMN2 mRNA was less than 100 nM; in the assay with HTT mRNA (setting [1]) it was less than 100 nM; with HTT mRNA (setting [2]), less than 100 nM; with MYB mRNA (setting [4]) it was less than 100 nM; with MYB mRNA (setting [5]), less than 100 nM; in the assay with Target C mRNA it was 100 to 1000 nM. Also, the half-maximal activity concentration (AC50) in the assay on HTT mRNA (setting [3]) and in the assay with MYB mRNA (setting [3]) was less than 100 nM each time.
As for `Cc1c(O)c(-c2ncc3cc(N4CC[C@@H](N)C4)cnc3n2)cc2cn(C)nc12` [Compound 159, (R)-5-(6-(3-aminopyrrolidin-1-yl)pyrido[2,3-d]pyrimidin-2-yl)-2,7-dimethyl-2H-indazol-6-ol 2,2,2-trifluoroacetate], the IC50 in the assay with SMN2 mRNA was less than 100 nM; with HTT mRNA (setting [1]) it was less than 100 nM; in the assay on HTT mRNA (setting [2]), less than 100 nM; in the assay on MYB mRNA (setting [4]), less than 100 nM; in the assay on MYB mRNA (setting [5]), less than 100 nM; in the assay with Target C mRNA, 100 to 1000 nM. For the same molecule, the half-maximal activity concentration (AC50) in the assay on HTT mRNA (setting [3]) was 100 to 1000 nM; in the assay with MYB mRNA (setting [3]), less than 100 nM.
Consider `Cc1c(O)c(-c2ncc3cc(N4CC[C@H](N)C4)cnc3n2)cc2cn(C)nc12` [Compound 160, (S)-5-(6-(3-aminopyrrolidin-1-yl)pyrido[2,3-d]pyrimidin-2-yl)-2,7-dimethyl-2H-indazol-6-ol 2,2,2-trifluoroacetate], for which the half-inhibitory concentration (IC50) with SMN2 mRNA was less than 100 nM; in the assay with HTT mRNA (setting [1]), 100 to 1000 nM; with HTT mRNA (setting [2]), 100 to 1000 nM; with MYB mRNA (setting [4]), less than 100 nM; with MYB mRNA (setting [5]) it was less than 100 nM; in the assay on Target C mRNA it was 1000 to 10000 nM. In addition, the half-maximal activity concentration (AC50) was 100 to 1000 nM in the assay on HTT mRNA (setting [3]) and less than 100 nM in the assay with MYB mRNA (setting [3]).
In the case of `CNC1CCN(c2cnc3nc(-c4cc5cn(C)nc5c(C)c4O)nc(OC)c3c2)C1` (stereo not shown) [Compound 161, 5-{4-methoxy-6-[3-(methylamino)pyrrolidin-1-yl]pyrido[2,3-d]pyrimidin-2-yl}-2,7-dimethylindazol-6-ol], the IC50 with SMN2 mRNA is less than 100 nM; in the assay on HTT mRNA (setting [1]), 100 to 1000 nM; in the assay on HTT mRNA (setting [2]) it was 100 to 1000 nM; in the assay on MYB mRNA (setting [4]) it was less than 100 nM; in the assay with MYB mRNA (setting [5]), less than 100 nM; in the assay with Target C mRNA it was 1000 to 10000 nM. The AC50 with HTT mRNA (setting [3]) is 100 to 1000 nM; in the assay with MYB mRNA (setting [3]), less than 100 nM.
For `COc1nc(-c2cc3cn(C)nc3c(C)c2O)nc2ncc(N3CCNCC3)cc12` [Compound 162, 5-[4-methoxy-6-(piperazin-1-yl)pyrido[2,3-d]pyrimidin-2-yl]-2,7-dimethylindazol-6-ol], the half-maximal inhibitory concentration (IC50) in the assay on SMN2 mRNA is less than 100 nM; with HTT mRNA (setting [1]) it was 100 to 1000 nM; with HTT mRNA (setting [2]), 100 to 1000 nM; with MYB mRNA (setting [4]) it was less than 100 nM; in the assay with MYB mRNA (setting [5]) it was less than 100 nM; in the assay on Target C mRNA, 1000 to 10000 nM. The concentration at half-maximal activity (AC50) with HTT mRNA (setting [3]) is 100 to 1000 nM; with MYB mRNA (setting [3]), less than 100 nM.
As for `COc1nc(-c2cc3cn(C)nc3c(C)c2O)nc2ncc(N3CCC(N(C)C)CC3)cc12` [Compound 163, 5-{6-[4-(dimethylamino)piperidin-1-yl]-4-methoxypyrido[2,3-d]pyrimidin-2-yl}-2,7-dimethylindazol-6-ol], the IC50 in the assay on SMN2 mRNA is less than 100 nM; in the assay on HTT mRNA (setting [1]), 1000 to 10000 nM; with HTT mRNA (setting [2]) it was 1000 to 10000 nM; in the assay on MYB mRNA (setting [4]), 100 to 1000 nM; with MYB mRNA (setting [5]), 100 to 1000 nM; in the assay on Target C mRNA, greater than 10000 nM. Besides, the values for the AC50 with HTT mRNA (setting [3]) and in the assay with MYB mRNA (setting [3]) were greater than 10000 nM and 100 to 1000 nM, respectively.
As for `Cn1cc2cc(-c3cnc4cc(N5CCC(NC6CC6)C5)ccc4n3)c(O)c(F)c2n1` (stereo not shown) [Compound 175, 5-[6-[3-(cyclopropylamino)pyrrolidin-1-yl]quinoxalin-2-yl]-7-fluoro-2-methyl-indazol-6-ol], the concentration for half-maximal inhibition (IC50) is less than 100 nM with SMN2 mRNA; less than 100 nM with HTT mRNA (setting [1]); less than 100 nM in the assay with HTT mRNA (setting [2]); less than 100 nM with MYB mRNA (setting [4]); less than 100 nM in the assay on MYB mRNA (setting [5]); 100 to 1000 nM in the assay on Target C mRNA. Moreover, the AC50 in the assay on HTT mRNA (setting [3]) and in the assay with MYB mRNA (setting [3]) was less than 100 nM in each case.
Turning to `Cn1cc2cc(-c3cnc4cc(N5CC[C@H](NC6CC6)C5)ccc4n3)c(O)c(F)c2n1` [Compound 176, 5-[6-[(3S)-3-(cyclopropylamino)318quinoxaline-1-yl]318quinoxaline-2-yl]-7-fluoro-2-methyl-indazol-6-ol], the half-maximal inhibitory concentration (IC50) was less than 100 nM in the assay on SMN2 mRNA; less than 100 nM in the assay with HTT mRNA (setting [1]); less than 100 nM with HTT mRNA (setting [2]); less than 100 nM in the assay with MYB mRNA (setting [4]); less than 100 nM in the assay with MYB mRNA (setting [5]); 100 to 1000 nM in the assay on Target C mRNA. Further, the AC50 in the assay on HTT mRNA (setting [3]) and with MYB mRNA (setting [3]) was less than 100 nM in each case.

Source of the values: US20250326748A1, “COMPOUNDS AND METHODS FOR MODULATING SPLICING” (REMIX THERAPEUTICS INC., priority 2022, published 2025).
